Measurements published in patent US11484607B2, “PSMA-targeted NIR dyes and their uses” (On Target Laboratories, LLC, priority 2015, dated 2022).
pKd: −log10 of the molar value.

Assays:
[1] = Concentration dependent UV spectrometric study of higher order aggregates; format: physicochemical
Experimental: Possible OTL78-related hypersensitivity in human was next examined using basophil activation assay. Drug related hypersensitivity is mainly due to immune response caused by cross-linking of immunoglobulin E (IgE) expressed on mast cells and basophils (FIG. 47D) resulting in activation and subsequent degranulation to release vasoactive amines, prostaglandins, and cytokines (29). Since cross-linking of IgE can be due to aggregates, concentration dependent UV spectrometric studies were conducted to determine higher order aggregates of OTL78.

[2] = molecular target: T1, PSMA (Homo sapiens, UniProt Q04609); assay: Relative binding affinity of DUPA-NIR conjugates with respect to DUPA-FITC on 22Rv1 cells, flow cytometry; settings: for affinity for PSMA (in words): in vitro binding affinity data; for pKd: conjugates with aromatic linkers, 1 h at 37° C., 100 nM DUPA-FITC
T1 construct: host or cells: 22Rv1 human prostate cancer cells
Experimental: (§1) FIG. 3—Relative binding affinities of DUPA-NIR conjugates 1-9 with respect to DUPA-FITC (14). PSMA-positive 22Rv1 human prostate cancer cells were incubated for 1 h at 37° C. in the presence of 100 nM DUPA-FITC with increasing concentrations of DUPA-NIR conjugates. […] Cell bound fluorescence was assayed as using flow cytometry.
as §1, with “6—Relative” for “3—Relative”, “with aromatic amino acids linkers” for “1-9”
as §1, with “3 Relative” for “3—Relative”
in vitro studies. […] PSMA-positive 22Rv1 human prostate cancer cells were incubated for 1 h at 37° C. in the presence of 100 nM DUPA-FITC with increasing concentrations of DUPA-NIR conjugates. […] Cell bound fluorescence was assayed as using flow cytometry.
PSMA-positive 22Rv1 human prostate cancer cells were incubated for 1 h at 37° C. in the presence of 100 nM DUPA-FITC with increasing concentrations of DUPA-NIR conjugates. […] Cell bound fluorescence was assayed as using flow cytometry.
as §1, with “24: Relative” for “3—Relative”, “conjugates” for “conjugates 1-9”
PSMA-positive 22Rv1 human prostate cancer cells were incubated for 1 h at 37° C. in the presence of 100 nM DUPA-FITC with increasing concentrations of DUPA-NIR conjugates. […] Cell bound fluorescence was assayed as using flow cytometry
Cancer cells were incubated for 1 h at 37° C. in the presence of 100 nM DUPA-FITC with increasing concentrations of compound 15. […] Cell bound fluorescence was assayed as using flow cytometry.

[3] = system: 22Rv1 human prostate tumor xenograft; assay: Time dependent whole-body fluorescence imaging of DUPA-NIR conjugates, IVIS imager; format: in vivo, mouse; settings: for whole-body imaging: 6 or 20 nmol, imaged at different time intervals
Experimental: 22Rv1 human prostate tumor xenograft bearing mouse was injected with 20 nmol of 15 and imaged with IVIS imager (ex=745 nm, em=ICG, exposure time=1 s) at different time intervals.
22Rv1 human prostate tumor xenograft bearing mouse was injected with 20 nmol of 23 and imaged with IVIS imager (ex=745 nm, em=ICG, exposure time=1 s) at different time intervals.
22Rv1 human prostate tumor xenograft bearing mouse was injected with 20 nmol of 25 and imaged with IVIS imager (ex=745 nm, em=ICG, exposure time=1 s) at different time intervals
22Rv1 human prostate tumor xenograft bearing mouse was injected with 6 nmol of 35 and imaged with IVIS imager (ex=745 nm, em=ICG, exposure time=1 s) at different time intervals.
22Rv1 human prostate tumor xenograft bearing mouse was injected with 6 nmol of 36 and imaged with IVIS imager (ex=745 nm, em=ICG, exposure time=1 s) at different time intervals.
22Rv1 human prostate tumor xenograft bearing mouse was injected with 20 nmol of 39 and imaged with IVIS imager (ex=745 nm, em=ICG, exposure time=1 s) at different time intervals.
22Rv1 human prostate tumor xenograft bearing mouse was injected with 20 nmol of 40 and imaged with IVIS imager (ex=745 nm, em=ICG, exposure time=1 s) at different time intervals.
22Rv1 human prostate tumor xenograft bearing mouse was injected with 20 nmol of 41 and imaged with IVIS imager (ex=745 nm, em=ICG, exposure time=1 s) at different time intervals.
FIG. 25: Overlay of whole body or half body fluorescence image over white light images after adjusting the threshold. 22Rv1 human prostate tumor xenograft bearing mouse was injected with 20 nmol of 54 and imaged with IVIS imager (ex=745 nm, em=ICG, exposure time=1 s) at different time intervals.
22Rv1 human prostate tumor xenograft bearing mouse was injected with 20 nmol of 55 and imaged with IVIS imager (ex=745 nm, em=ICG, exposure time=1 s) at different time intervals.
22Rv1 human prostate tumor xenograft bearing mouse was injected with 20 nmol of 56 and imaged with IVIS imager (ex=745 nm, em=ICG, exposure time=1 s) at different time intervals.
22Rv1 human prostate tumor xenograft bearing mouse was injected with 20 nmol of 57 and imaged with IVIS imager (ex=745 nm, em=ICG, exposure time=1 s) at different time intervals
22Rv1 human prostate tumor xenograft bearing mouse was injected with 20 nmol of 58 and imaged with IVIS imager (ex=745 nm, em=ICG, exposure time=1 s) at different time intervals
22Rv1 human prostate tumor xenograft bearing mouse was injected with 20 nmol of 60 and imaged with IVIS imager (ex=745 nm, em=ICG, exposure time=1 s) at different time intervals.
in vivo studies. […] 22Rv1 human prostate tumor xenograft bearing mouse was injected with 20 nmol of 63 and imaged with IVIS imager (ex=745 nm, em=ICG, exposure time=1 s) at different time intervals.
22Rv1 human prostate tumor xenograft bearing mouse was injected with 6 nmol of 63 and imaged with IVIS imager (ex=745 nm, em=ICG, exposure time=1 s) at different time intervals.
22Rv1 human prostate tumor xenograft bearing mouse was injected with 20 nmol of 64 and imaged with IVIS imager (ex=745 nm, em=ICG, exposure time=1 s) at different time intervals.
22Rv1 human prostate tumor xenograft bearing mouse was injected with 6 nmol of 15 and imaged with IVIS imager (ex=745 nm, em=ICG, exposure time=1 s) at different time intervals.

[4] = system: human prostate tumor xenografts (22Rv1 cells); assay: Tissue biodistribution and tumor-to-tissue fluorescence ratio of DUPA-NIR conjugates, IVIS imaging; format: in vivo, mice; settings: 2 h after tail vein injection
Experimental: In vivo studies. More specifically, biodistribution of DUPA-NIR conjugates 1-9 was monitored using fluorescence imaging of mice bearing human prostate tumor xenografts (22Rv1 cells). Male nude mice with 22Rv1 tumor xenografts were injected with DUPA-NIR dye conjugates via tail vein. The mice were euthanized 2 h after administration of the DUPA-NIR dye conjugate, selected tissues were harvested, and tissues were imaged with IVIS imager (ex=745 nm, em=ICG, exposure time=1 s).
The conjugates were also tested to show the ratio of tumor-to-tissue fluorescence. […] After imaging, fluorescence within a Region of interest (ROI) was measured for each tissue using In Vivo imaging software and tumor-to-tissue fluorescence was then calculated
(§2) in vivo studies. […] Male nude mice with 22Rv1 tumor xenografts were injected with DUPA-NIR dye conjugates via tail vein. The mice were euthanized 2 h after administration of the DUPA-NIR dye conjugate, selected tissues were harvested, and tissues were imaged with IVIS imager (ex=745 nm, em=ICG, exposure time=1 s). After imaging, fluorescence within a Region of interest (ROI) was measured for each tissue using In Vivo imaging software and tumor-to-tissue fluorescence was then calculated.
Male nude mice with 22Rv1 tumor xenografts were injected with DUPA-NIR dye conjugates via tail vein. The mice were euthanized 2 h after administration of the DUPA-NIR dye conjugate, selected tissues were harvested, and tissues were imaged with IVIS imager (ex=745 nm, em=ICG, exposure time=1 s). After imaging, fluorescence within a Region of interest (ROI) was measured for each tissue using In Vivo imaging software and tumor-to-tissue fluorescence was then calculated.
as §2, with “In vivo” for “in vivo”

T1 sequence (Q04609 whole entry): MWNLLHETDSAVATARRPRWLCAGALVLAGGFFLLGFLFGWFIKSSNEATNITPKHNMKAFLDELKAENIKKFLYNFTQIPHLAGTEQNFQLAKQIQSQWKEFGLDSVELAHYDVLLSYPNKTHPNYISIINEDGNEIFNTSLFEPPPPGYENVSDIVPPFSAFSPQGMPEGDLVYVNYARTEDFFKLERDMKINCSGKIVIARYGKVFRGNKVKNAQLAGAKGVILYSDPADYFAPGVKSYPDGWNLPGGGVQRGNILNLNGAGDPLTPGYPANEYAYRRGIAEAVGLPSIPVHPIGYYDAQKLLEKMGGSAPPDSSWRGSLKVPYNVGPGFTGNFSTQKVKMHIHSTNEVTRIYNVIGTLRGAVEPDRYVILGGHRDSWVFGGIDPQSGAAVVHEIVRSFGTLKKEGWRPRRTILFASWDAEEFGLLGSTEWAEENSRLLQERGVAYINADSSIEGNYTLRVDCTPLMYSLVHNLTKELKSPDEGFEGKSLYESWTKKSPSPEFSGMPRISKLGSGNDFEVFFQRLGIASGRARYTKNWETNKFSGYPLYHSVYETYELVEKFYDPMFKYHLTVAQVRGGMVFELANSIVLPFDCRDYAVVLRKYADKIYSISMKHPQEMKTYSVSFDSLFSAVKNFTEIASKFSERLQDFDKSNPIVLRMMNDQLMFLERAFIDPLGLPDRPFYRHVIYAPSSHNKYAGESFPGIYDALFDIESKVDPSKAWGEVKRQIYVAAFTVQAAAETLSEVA

Row | Compound | higher aggregates ([1]; 75 μM concentration in saline) [%] | higher order aggregates (UV spectra), in words ([1]; 75 μM in saline) | affinity for PSMA (in words) [2] | whole-body imaging [3] | tumor-to-background ratio (TBR), in words [4] | sites of accumulation in whole-body imaging ([3]; 6 nmol, time dependent) | pKd [2]
1 | OTL38 [reference compound] | > 50 | concentration dependent aggregation peak | – | – | – | – | –
2 | CC1(C)C(/C=C/C2=C(Oc3ccc(C[C@H](NC(=O)[C@](C)(Cc4ccc(F)cc4)NC(=O)CCOCCOCCNC(=O)CC[C@H](NC(=O)N[C@@H](CCC(=O)O)C(=O)O)C(=O)O)C(=O)O)cc3)C(=C/C=C3/N(CCCCS(=O)(=O)O)c4ccc(S(=O)(=O)O)cc4C3(C)C)/CCC2)=[N+](CCCCS(=O)(=O)[O-])c2ccc(S(=O)(=O)O)cc21 [Compound 36] | – | – | very high affinity | very good whole-body imaging data within 2-4 hours | – | – | –
3 | CC1(C)C(/C=C/C2=C(Oc3ccc(C[C@H](NC(=O)[C@H](Cc4ccccc4)NC(=O)CCCCCCCNC(=O)CC[C@H](NC(=O)N[C@@H](CCC(=O)O)C(=O)O)C(=O)O)C(=O)O)cc3)C(=C/C=C3/N(CCCCS(=O)(=O)O)c4ccc(S(=O)(=O)O)cc4C3(C)C)/CCC2)=[N+](CCCCS(=O)(=O)[O-])c2ccc(S(=O)(=O)O)cc21 [Compound 15] | – | – | very high affinity | very good whole-body imaging data within 2-4 hours | excellent | accumulated in PSMA-positive tumors and kidneys | –
4 | CC1(C)C(/C=C/C2=C(SC[C@H](NC(=O)[C@H](Cc3ccccc3)NC(=O)CCCCCCCNC(=O)CC[C@H](NC(=O)N[C@@H](CCC(=O)O)C(=O)O)C(=O)O)C(=O)O)C(=C/C=C3/N(CCCCS(=O)(=O)O)c4ccc(S(=O)(=O)O)cc4C3(C)C)/CCC2)=[N+](CCCCS(=O)(=O)[O-])c2ccc(S(=O)(=O)O)cc21 [Compound 25] | – | – | very high affinity | very good whole-body imaging data within 2-4 hours | – | – | 8.20
5 | CC1(C)C(/C=C/C2=C(Oc3ccc(C[C@H](NC(=O)[C@H](Cc4ccccc4)NC(=O)CCOCCOCCNC(=O)CC[C@H](NC(=O)N[C@@H](CCC(=O)O)C(=O)O)C(=O)O)C(=O)O)cc3)C(=C/C=C3/N(CCCCS(=O)(=O)O)c4ccc(S(=O)(=O)O)cc4C3(C)C)/CCC2)=[N+](CCCCS(=O)(=O)[O-])c2ccc(S(=O)(=O)O)cc21 [Compound 35] | – | – | – | very good whole-body imaging data within 2-4 hours | excellent | – | 7.62
6 | CC1(C)C(/C=C/C2=C(Oc3ccc(C[C@H](NC(=O)[C@H](Cc4ccccc4)NC(=O)[C@H](Cc4ccccc4)NC(=O)CCCCCCCNC(=O)CC[C@H](NC(=O)N[C@@H](CCC(=O)O)C(=O)O)C(=O)O)C(=O)O)cc3)C(=C/C=C3/N(CCCCS(=O)(=O)O)c4ccc(S(=O)(=O)O)cc4C3(C)C)/CCC2)=[N+](CCCCS(=O)(=O)[O-])c2ccc(S(=O)(=O)O)cc21 [Compound 23] | – | – | very high affinity | very good whole-body imaging data within 2-4 hours | – | – | 8.12
